Tests used:
[1] = biological target: T1, Tyrosine-protein phosphatase non-receptor type 1 (Homo sapiens, UniProt P18031); test: Inhibition of human Protein-tyrosine phosphatase 1B
T1 sequence (P18031 whole entry): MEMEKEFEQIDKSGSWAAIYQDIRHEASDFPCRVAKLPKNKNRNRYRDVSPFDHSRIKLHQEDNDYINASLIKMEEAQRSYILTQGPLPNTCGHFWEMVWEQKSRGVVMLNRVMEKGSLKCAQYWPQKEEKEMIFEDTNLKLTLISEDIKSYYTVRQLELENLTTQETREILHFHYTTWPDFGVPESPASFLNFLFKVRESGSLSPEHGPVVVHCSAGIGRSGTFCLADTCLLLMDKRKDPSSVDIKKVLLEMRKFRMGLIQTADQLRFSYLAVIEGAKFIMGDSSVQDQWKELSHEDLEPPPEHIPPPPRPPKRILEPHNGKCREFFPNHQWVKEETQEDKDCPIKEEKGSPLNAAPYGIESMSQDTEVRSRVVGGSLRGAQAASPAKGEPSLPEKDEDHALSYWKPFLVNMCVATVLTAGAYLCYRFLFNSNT

[2] = biological target: Receptor-type tyrosine-protein phosphatase F (Homo sapiens, UniProt P10586); test: Compound was tested for selectivity against LAR
Sequence of Receptor-type tyrosine-protein phosphatase F (P10586 whole entry): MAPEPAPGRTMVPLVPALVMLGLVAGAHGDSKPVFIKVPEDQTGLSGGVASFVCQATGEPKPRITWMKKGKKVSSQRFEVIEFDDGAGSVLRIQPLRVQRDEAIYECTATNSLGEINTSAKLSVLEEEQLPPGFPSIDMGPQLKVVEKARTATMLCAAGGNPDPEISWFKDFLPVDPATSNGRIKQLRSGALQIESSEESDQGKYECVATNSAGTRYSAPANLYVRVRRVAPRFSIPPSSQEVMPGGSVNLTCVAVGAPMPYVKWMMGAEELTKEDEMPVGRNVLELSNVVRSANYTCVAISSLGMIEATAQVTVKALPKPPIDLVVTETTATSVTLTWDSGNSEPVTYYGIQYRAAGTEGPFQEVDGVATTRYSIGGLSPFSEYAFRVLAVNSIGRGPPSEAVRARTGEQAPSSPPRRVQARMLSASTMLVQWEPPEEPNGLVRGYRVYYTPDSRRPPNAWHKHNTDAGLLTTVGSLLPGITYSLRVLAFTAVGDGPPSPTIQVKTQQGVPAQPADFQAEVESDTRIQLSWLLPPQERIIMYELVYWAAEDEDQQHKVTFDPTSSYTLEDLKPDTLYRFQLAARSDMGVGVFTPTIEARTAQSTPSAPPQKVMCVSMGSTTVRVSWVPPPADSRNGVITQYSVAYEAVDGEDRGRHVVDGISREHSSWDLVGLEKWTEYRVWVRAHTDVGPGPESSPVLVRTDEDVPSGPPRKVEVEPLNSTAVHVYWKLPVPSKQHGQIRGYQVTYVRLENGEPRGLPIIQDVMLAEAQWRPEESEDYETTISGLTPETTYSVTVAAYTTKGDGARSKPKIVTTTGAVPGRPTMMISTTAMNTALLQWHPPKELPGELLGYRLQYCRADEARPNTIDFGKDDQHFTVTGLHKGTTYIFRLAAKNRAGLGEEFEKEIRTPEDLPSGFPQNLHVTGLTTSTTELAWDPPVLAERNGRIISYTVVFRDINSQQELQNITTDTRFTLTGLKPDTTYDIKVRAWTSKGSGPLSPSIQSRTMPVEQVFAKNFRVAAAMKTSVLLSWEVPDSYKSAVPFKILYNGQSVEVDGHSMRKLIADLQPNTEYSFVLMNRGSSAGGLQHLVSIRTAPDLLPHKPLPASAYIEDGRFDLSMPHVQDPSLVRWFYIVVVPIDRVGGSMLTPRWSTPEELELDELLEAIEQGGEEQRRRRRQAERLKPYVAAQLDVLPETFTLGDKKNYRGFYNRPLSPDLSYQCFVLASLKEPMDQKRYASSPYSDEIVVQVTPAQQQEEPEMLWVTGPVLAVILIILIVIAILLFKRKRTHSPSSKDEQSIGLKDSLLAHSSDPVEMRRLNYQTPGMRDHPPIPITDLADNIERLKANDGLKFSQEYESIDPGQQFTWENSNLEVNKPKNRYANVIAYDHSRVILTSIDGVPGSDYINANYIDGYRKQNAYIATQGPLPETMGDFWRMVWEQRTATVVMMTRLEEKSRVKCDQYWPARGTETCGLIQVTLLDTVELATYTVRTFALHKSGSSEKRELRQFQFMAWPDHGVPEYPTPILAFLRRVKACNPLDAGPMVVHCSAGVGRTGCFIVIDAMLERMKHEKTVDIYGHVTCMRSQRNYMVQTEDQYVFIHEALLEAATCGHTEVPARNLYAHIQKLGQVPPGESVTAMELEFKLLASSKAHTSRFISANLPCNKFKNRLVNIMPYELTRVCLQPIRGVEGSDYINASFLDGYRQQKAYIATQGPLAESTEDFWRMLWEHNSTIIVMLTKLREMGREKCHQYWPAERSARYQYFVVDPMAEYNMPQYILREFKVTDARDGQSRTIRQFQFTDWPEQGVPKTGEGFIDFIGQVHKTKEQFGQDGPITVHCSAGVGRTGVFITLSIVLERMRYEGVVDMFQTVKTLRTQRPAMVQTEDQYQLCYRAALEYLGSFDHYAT

[3] = biological target: T2, Tyrosine-protein phosphatase non-receptor type 2 (Homo sapiens, UniProt P17706); test: Compound was tested for selectivity against human T cell protein tyrosine phosphatase; type: cell-based
T2 sequence (P17706 whole entry): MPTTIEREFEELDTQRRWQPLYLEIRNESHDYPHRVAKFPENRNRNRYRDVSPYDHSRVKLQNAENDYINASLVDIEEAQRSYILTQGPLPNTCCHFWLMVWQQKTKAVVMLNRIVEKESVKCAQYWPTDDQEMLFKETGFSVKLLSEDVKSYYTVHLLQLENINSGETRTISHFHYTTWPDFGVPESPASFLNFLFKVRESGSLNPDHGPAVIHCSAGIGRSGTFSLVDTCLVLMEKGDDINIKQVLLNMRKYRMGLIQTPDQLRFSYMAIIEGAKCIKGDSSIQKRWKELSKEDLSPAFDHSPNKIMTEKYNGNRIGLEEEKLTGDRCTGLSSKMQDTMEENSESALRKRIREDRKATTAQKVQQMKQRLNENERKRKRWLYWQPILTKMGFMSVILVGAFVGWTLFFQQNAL

SMILES | IC50 [1] [µM] | IC50 [2] [µM] | IC50 [3] [µM]
CC(C)c1ccc2occ(C=O)c(=O)c2c1 | 22 | – | –
O=Cc1coc2ccc([N+](=O)[O-])cc2c1=O | 91 | – | –
O=C(O)c1coc2ccccc2c1=O | > 1000 | – | –
O=Cc1coc2c(Br)cc(Br)cc2c1=O | 20 | – | –
O=Cc1coc2ccc(Cl)cc2c1=O | 28 | – | –
O=Cc1coc2c(Cl)cc(Cl)cc2c1=O | 25 | – | –
O=Cc1coc2ccc(Br)cc2c1=O | 20 | – | –
O=Cc1coc2ccccc2c1=O | 73 | – | –
O=Cc1coc2c(ccc3ccccc32)c1=O | 25 | – | –
O=Cc1coc2ccc3ccccc3c2c1=O | 14 | > 1000 | 780
Nc1oc2ccccc2c(=O)c1C=O | > 1000 | – | –
O=Cc1coc2ccc(-c3ccc(-c4ccccc4)cc3)cc2c1=O | 4.3 | > 1000 | 51
Cc1cc2occ(C=O)c(=O)c2cc1Cl | 18 | – | –
O=Cc1coc2ccc(F)cc2c1=O | 55 | – | –
O=Cc1coc2ccc(-c3ccccc3)cc2c1=O | 14 | > 1000 | 240
O=C(O)c1cc(=O)c2ccccc2o1 [CHROMOCARB] | > 1000 | – | –
O=C(O)c1cc2ccccc2oc1=O [COUMARIN-3-CARBOXYLIC ACID] | > 1000 | – | –

Reference: ChEMBL document CHEMBL1136136, “Formylchromone derivatives as a novel class of protein tyrosine phosphatase 1B inhibitors” (Bioorg Med Chem Lett, 2003)
